Assay results as given in ChEMBL document CHEMBL5252648, “Design, synthesis and bioactivity evaluation of a series of quinazolinone derivatives as potent PI3Kγ antagonist” (Bioorg Med Chem, 2023).
Activity calls are given as the source filed them. The rule behind the calls is not given here.

How the values were obtained:
[1] = biological target: T1, Serine/threonine-protein kinase AKT (Homo sapiens) (UniProt P31751+Q9Y243+P31749); assay: Inhibition of AKT phosphorylation in human Jurkat cells at 1 uM incubated for 1 to 12 hrs by Western blot analysis relative to control; format: cell-based; conditions: time 1-12 hrs
Jurkat [2] = assay: Induction of apoptosis against human Jurkat cells assessed as early apoptotic cells at 1 uM measured for 24 hrs by Annexin V-FITC/propidium iodide staining based flow cytometry (reference value: 5.76%); format: functional
RAW264.7 [3] = assay: Cytotoxicity against mouse RAW264.7 cells assessed as reduction in cell viability incubated for 24 hrs by CCK-8 assay; format: functional, cell-based; conditions: RAW264.7, 24 h
RAW264.7 [4] = assay: Inhibition of AKT phosphorylation in mouse RAW264.7 cells incubated for 1 to 12 hrs by Western blot analysis relative to control; format: cell-based; conditions: dose 0.1-10 µM, time 1-12 hrs
Jurkat [5] = assay: Upregulation of phosphorylated ERK1/2 protein expression in human Jurkat cells at 10 uM measured for 3 hrs; format: functional, cell-based
Jurkat [6] = assay: Upregulation of phosphorylated p38 protein expression in human Jurkat cells measured for 3 hrs; format: functional, cell-based; conditions: dose 0.1-10 µM
Jurkat [7] = assay: Downregulation of phosphorylated AKT protein expression in human Jurkat cells measured for 3 hrs; format: functional, cell-based; conditions: dose 0.1-10 µM
THP-1 [8] = assay: Induction of apoptosis against human THP-1 cells assessed as early apoptotic cells at 1 uM measured for 24 hrs by Annexin V-FITC/propidium iodide staining based flow cytometry (reference value: 10.3%); format: functional
Jurkat [9] = assay: Induction of apoptosis against human Jurkat cells assessed as viable cells at 0.1 uM measured for 24 hrs by Annexin V-FITC/propidium iodide staining based flow cytometry (reference value: 94.2 %); format: functional; conditions: read-out: Activity
THP-1 [10] = assay: Induction of apoptosis against human THP-1 cells assessed as early apoptotic cells at 0.1 uM measured for 24 hrs by Annexin V-FITC/propidium iodide staining based flow cytometry (reference value: 10.3%); format: functional
MDA-MB-231 = assay: Cytotoxicity against human MDA-MB-231 cells assessed as reduction in cell viability incubated for 24 hrs by CCK-8 assay; format: functional, cell-based; conditions: MDA-MB-231, 24 h
[11] = biological target: T1, Serine/threonine-protein kinase AKT (Homo sapiens); assay: Inhibition of AKT phosphorylation in human THP-1 cells incubated for 1 to 12 hrs by Western blot analysis relative to control; format: cell-based; conditions: dose 0.1-10 µM, time 1-12 hrs
Jurkat [12] = assay: Induction of apoptosis against human Jurkat cells assessed as late apoptotic cells at 0.1 uM measured for 24 hrs by Annexin V-FITC/propidium iodide staining based flow cytometry (reference value: 0.00%); format: functional
A549 = assay: Cytotoxicity against human A549 cells assessed as reduction in cell viability incubated for 24 hrs by CCK-8 assay; format: functional, cell-based; conditions: A549, 24 h
Jurkat [13] = assay: Induction of apoptosis against human Jurkat cells assessed as viable cells at 1 uM measured for 24 hrs by Annexin V-FITC/propidium iodide staining based flow cytometry (reference value: 94.2 %); format: functional; conditions: read-out: Activity
Jurkat [14] = assay: Induction of apoptosis against human Jurkat cells assessed as necrotic cells at 10 uM measured for 24 hrs by Annexin V-FITC/propidium iodide staining based flow cytometry (reference value: 0.00%); format: functional
Jurkat [15] = assay: Induction of apoptosis against human Jurkat cells assessed as late apoptotic cells at 1 uM measured for 24 hrs by Annexin V-FITC/propidium iodide staining based flow cytometry (reference value: 0.00%); format: functional
HepG2 = assay: Cytotoxicity against human HepG2 cells assessed as reduction in cell viability incubated for 24 hrs by CCK-8 assay; format: functional, cell-based; conditions: HepG2, 24 h
[16] = biological target: Phosphatidylinositol 4,5-bisphosphate 3-kinase catalytic subunit beta isoform (Homo sapiens, UniProt P42338); assay: Antagonist activity at PI3Kbeta (unknown origin) using PIP2 as substrate in presence of ATP incubated for 30 to 60 mins by ADP-glo based luminescence assay
THP-1 [17] = assay: Induction of apoptosis against human THP-1 cells assessed as viable cells at 10 uM measured for 24 hrs by Annexin V-FITC/propidium iodide staining based flow cytometry (reference value: 85.6%); format: functional; conditions: read-out: Activity
Jurkat [18] = assay: Induction of apoptosis against human Jurkat cells assessed as necrotic cells at 1 uM measured for 24 hrs by Annexin V-FITC/propidium iodide staining based flow cytometry (reference value: 0.00%); format: functional
THP-1 [19] = assay: Induction of apoptosis against human THP-1 cells assessed as late apoptotic cells at 1 uM measured for 24 hrs by Annexin V-FITC/propidium iodide staining based flow cytometry (reference value: 3.70%); format: functional
RAW264.7 [20] = assay: Inhibition of AKT phosphorylation in mouse RAW264.7 cells at 1 uM incubated for 1 to 12 hrs by Western blot analysis relative to control; format: cell-based; conditions: time 1-12 hrs
B16-F10 = assay: Cytotoxicity against mouse B16-F10 cells assessed as reduction in cell viability incubated for 24 hrs by CCK-8 assay; format: functional, cell-based; conditions: B16-F10, 24 h
[21] = Cytotoxicity against mouse L929 cells assessed as reduction in cell viability incubated for 24 hrs by CCK-8 assay; format: toxicity, cell-based
Huh-7 = assay: Cytotoxicity against human Huh-7 cells assessed as reduction in cell viability incubated for 24 hrs by CCK-8 assay; format: functional, cell-based; conditions: Huh-7, 24 h
T47D = assay: Cytotoxicity against human T47D cells assessed as reduction in cell viability incubated for 24 hrs by CCK-8 assay; format: functional, cell-based
THP-1 [22] = assay: Induction of apoptosis against human THP-1 cells assessed as viable cells at 1 uM measured for 24 hrs by Annexin V-FITC/propidium iodide staining based flow cytometry (reference value: 85.6%); format: functional; conditions: read-out: Activity
Jurkat [23] = assay: Induction of apoptosis against human Jurkat cells assessed as necrotic cells at 0.1 uM measured for 24 hrs by Annexin V-FITC/propidium iodide staining based flow cytometry (reference value: 0.00%); format: functional
THP-1 [24] = assay: Induction of apoptosis against human THP-1 cells assessed as necrotic cells at 0.1 uM measured for 24 hrs by Annexin V-FITC/propidium iodide staining based flow cytometry (reference value: 0.316%); format: functional
THP-1 [25] = assay: Induction of apoptosis against human THP-1 cells assessed as late apoptotic cells at 10 uM measured for 24 hrs by Annexin V-FITC/propidium iodide staining based flow cytometry (reference value: 3.70%); format: functional
[26] = biological target: T1, Serine/threonine-protein kinase AKT (Homo sapiens); assay: Inhibition of AKT phosphorylation in human THP-1 cells at 1 uM incubated for 1 to 12 hrs by Western blot analysis relative to control; format: cell-based; conditions: time 1-12 hrs
[27] = biological target: Phosphatidylinositol 4,5-bisphosphate 3-kinase catalytic subunit gamma isoform (Homo sapiens, UniProt P48736); assay: Antagonist activity at PI3Kgamma (unknown origin) using PIP2 as substrate in presence of ATP incubated for 30 to 60 mins by ADP-glo based luminescence assay
Jurkat [28] = assay: Upregulation of phosphorylated ERK1/2 protein expression in human Jurkat cells measured for 3 hrs; format: functional, cell-based; conditions: dose 0.1-10 µM
Jurkat [29] = assay: Induction of apoptosis against human Jurkat cells assessed as early apoptotic cells at 0.1 uM measured for 24 hrs by Annexin V-FITC/propidium iodide staining based flow cytometry (reference value: 5.76%); format: functional
Jurkat [30] = assay: Induction of apoptosis against human Jurkat cells assessed as viable cells at 10 uM measured for 24 hrs by Annexin V-FITC/propidium iodide staining based flow cytometry (reference value: 94.2 %); format: functional; conditions: read-out: Activity
THP-1 [31] = assay: Induction of apoptosis against human THP-1 cells assessed as viable cells at 0.1 uM measured for 24 hrs by Annexin V-FITC/propidium iodide staining based flow cytometry (reference value: 85.6%); format: functional; conditions: read-out: Activity

T1 sequence (P31749 whole entry, looked up): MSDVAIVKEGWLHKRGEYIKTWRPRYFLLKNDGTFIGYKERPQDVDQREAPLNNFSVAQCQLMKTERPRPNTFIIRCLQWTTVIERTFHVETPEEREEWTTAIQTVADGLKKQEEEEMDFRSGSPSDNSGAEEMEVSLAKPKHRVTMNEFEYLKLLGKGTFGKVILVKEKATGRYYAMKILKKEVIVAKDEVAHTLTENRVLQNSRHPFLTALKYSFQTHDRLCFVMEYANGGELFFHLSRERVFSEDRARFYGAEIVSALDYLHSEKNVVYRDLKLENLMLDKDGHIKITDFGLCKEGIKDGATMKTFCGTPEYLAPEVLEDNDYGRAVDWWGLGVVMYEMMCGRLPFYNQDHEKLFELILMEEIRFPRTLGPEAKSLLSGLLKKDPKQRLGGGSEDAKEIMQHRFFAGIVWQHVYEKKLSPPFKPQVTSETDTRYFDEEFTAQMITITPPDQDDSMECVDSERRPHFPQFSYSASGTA
T1 sequence (P31751 whole entry, looked up): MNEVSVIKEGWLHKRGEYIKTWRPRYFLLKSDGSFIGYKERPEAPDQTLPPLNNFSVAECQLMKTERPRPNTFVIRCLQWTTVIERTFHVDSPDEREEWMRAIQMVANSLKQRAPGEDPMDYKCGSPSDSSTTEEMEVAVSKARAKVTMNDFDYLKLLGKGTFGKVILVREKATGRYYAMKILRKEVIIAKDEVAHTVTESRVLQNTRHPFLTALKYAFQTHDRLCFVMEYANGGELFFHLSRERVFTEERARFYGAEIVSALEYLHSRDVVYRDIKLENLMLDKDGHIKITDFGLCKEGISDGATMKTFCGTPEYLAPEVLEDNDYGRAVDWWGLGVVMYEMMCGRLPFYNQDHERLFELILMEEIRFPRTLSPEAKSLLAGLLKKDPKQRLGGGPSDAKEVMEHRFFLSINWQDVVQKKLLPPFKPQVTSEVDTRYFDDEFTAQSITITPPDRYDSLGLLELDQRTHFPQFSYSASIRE
T1 sequence (Q9Y243 whole entry, looked up): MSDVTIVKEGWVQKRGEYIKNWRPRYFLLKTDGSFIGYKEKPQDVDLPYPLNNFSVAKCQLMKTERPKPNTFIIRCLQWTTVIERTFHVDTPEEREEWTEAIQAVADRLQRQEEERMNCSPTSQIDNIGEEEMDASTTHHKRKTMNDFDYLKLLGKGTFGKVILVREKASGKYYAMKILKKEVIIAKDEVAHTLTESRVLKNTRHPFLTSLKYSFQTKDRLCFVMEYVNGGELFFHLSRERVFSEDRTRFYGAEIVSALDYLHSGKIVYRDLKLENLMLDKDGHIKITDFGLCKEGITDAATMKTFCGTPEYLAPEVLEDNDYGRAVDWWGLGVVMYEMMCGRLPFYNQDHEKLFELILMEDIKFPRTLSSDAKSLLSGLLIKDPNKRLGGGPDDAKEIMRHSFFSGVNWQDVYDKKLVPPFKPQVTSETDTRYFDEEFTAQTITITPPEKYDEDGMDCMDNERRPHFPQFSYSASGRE
Sequence of Phosphatidylinositol 4,5-bisphosphate 3-kinase catalytic subunit gamma isoform (P48736 whole entry, canonical isoform): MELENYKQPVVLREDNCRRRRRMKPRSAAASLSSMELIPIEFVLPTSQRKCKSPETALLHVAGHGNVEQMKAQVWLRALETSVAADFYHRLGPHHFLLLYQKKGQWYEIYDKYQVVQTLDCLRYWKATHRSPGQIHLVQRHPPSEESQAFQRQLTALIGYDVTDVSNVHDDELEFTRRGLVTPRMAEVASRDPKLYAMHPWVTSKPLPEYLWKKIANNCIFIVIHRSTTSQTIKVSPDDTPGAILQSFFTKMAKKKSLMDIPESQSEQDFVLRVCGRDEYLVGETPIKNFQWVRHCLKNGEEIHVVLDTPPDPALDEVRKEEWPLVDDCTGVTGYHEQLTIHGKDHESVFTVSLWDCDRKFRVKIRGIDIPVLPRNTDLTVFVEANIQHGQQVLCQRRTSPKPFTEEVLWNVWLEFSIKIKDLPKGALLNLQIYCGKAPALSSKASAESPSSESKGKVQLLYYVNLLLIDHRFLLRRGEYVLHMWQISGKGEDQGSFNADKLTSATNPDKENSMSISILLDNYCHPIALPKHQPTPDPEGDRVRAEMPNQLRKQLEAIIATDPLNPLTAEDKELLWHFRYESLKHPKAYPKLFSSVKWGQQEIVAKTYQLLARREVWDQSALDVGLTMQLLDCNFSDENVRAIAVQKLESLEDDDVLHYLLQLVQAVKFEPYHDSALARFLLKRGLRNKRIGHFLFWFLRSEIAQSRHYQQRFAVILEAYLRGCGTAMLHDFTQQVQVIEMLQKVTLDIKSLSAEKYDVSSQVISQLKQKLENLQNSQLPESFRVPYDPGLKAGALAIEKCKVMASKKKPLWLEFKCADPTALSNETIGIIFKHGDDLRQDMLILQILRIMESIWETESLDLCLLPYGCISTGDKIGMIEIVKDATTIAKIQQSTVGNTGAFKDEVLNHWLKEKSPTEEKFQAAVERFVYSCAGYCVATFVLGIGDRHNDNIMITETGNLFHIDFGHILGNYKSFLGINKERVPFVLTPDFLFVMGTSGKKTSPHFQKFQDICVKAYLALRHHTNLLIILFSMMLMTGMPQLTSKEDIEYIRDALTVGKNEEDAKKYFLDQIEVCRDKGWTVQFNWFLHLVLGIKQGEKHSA
Sequence of Phosphatidylinositol 4,5-bisphosphate 3-kinase catalytic subunit beta isoform (P42338 whole entry, canonical isoform): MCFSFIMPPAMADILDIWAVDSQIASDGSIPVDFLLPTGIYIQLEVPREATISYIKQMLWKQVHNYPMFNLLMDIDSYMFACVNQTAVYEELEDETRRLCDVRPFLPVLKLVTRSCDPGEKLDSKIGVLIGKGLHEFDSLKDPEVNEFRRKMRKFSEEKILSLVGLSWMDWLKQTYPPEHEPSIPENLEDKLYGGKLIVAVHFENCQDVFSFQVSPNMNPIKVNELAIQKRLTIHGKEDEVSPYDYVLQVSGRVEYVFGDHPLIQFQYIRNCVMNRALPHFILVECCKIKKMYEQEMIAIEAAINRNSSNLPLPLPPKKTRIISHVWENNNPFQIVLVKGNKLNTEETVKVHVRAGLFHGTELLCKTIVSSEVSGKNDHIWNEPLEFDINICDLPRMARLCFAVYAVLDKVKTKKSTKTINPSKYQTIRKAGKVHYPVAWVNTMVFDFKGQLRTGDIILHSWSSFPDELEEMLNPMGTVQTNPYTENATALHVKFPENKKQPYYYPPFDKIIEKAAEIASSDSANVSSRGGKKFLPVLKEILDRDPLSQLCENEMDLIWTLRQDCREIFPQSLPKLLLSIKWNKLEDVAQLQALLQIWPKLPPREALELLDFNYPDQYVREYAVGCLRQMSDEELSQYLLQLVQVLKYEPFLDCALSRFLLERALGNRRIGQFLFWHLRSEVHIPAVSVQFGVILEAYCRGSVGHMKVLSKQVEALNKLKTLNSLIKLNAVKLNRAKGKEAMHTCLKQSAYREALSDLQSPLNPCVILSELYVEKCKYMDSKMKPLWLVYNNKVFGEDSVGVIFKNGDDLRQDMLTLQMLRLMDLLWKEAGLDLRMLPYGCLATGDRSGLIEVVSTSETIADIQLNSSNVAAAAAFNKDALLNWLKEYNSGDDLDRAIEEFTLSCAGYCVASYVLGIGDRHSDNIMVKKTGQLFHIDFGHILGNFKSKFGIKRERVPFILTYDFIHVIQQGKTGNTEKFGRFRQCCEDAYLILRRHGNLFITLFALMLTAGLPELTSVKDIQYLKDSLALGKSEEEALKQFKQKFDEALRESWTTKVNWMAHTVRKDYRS

With `COc1ccc(C#Cc2cccc3cc(C(C)Nc4ncnc5[nH]cnc45)n(-c4ccccc4)c(=O)c23)cc1` (configuration not stated) the inhibition [1] was “Active”, the Activity (Jurkat [2]) was 17.7% and the IC50 (RAW264.7 [3]) was 4.54 µM. For the same compound, the inhibition (RAW264.7 [4]) was “Dose-Dependent Effect”, the Activity (Jurkat [5]) was “Active” and the Activity (Jurkat [6]) was “Dose-Dependent Effect”. The Activity (Jurkat [7]) was “Dose-Dependent Effect”, the Activity (THP-1 [8]) was 35.7% and the viability at 0.1 µM (Jurkat [9]) was 66.8%. For the same compound, the Activity (THP-1 [10]) was 25.3%, the IC50 (MDA-MB-231) was 6.6 µM and the inhibition [11] was “Dose-Dependent Effect”. It also gave an Activity (Jurkat [12]) of 0.025%, an IC50 (A549) of over 100 µM and a viability at 1 µM (Jurkat [13]) of 82.3%. For the same compound, the Activity (Jurkat [14]) was 0.016%, the Activity (Jurkat [15]) was 0.042% and the IC50 (HepG2) was over 100 µM. It also gave an IC50 [16] of 0.109 µM, a viability at 10 µM (THP-1 [17]) of 60.7% and an Activity (Jurkat [18]) of 0%. For the same compound, the Activity (THP-1 [19]) was 4.63%, the inhibition (RAW264.7 [20]) was “Active” and the IC50 (B16-F10) was over 100 µM. For the same compound, the IC50 at 24 h [21] was over 100 µM, the IC50 (Huh-7) was 5.05 µM and the IC50 (T47D) was over 100 µM. It also gave a viability at 1 µM (THP-1 [22]) of 59.6%, an Activity (Jurkat [23]) of 0% and an Activity (THP-1 [24]) of 0.125%. For the same compound, the Activity (THP-1 [25]) was 14.6%, the inhibition [26] was “Active” and the IC50 [27] was 0.208 µM. For the same compound, the Activity (Jurkat [28]) was “Dose-Dependent Effect”, the Activity (Jurkat [29]) was 10.9% and the viability at 10 µM (Jurkat [30]) was 30.2%. For the same compound, the viability at 0.1 µM (THP-1 [31]) was 66.8%.
